Results on one molecule are retold here after US20110144125A1, “Anti-Arrhythmia Agents, Methods of Their Use, Methods of Their Identification and Kits Therefore” (THE UAB RESEARCH FOUNDATION, priority 2008, published 2011).

Structures are written as SMILES.

For assay [1], the system named is rat left atrial appendage. The assay can be described thus: 2-APB-induced spontaneous mechanical activity (SMA/SMEs) in isolated superfused rat left atria / left atrial appendage. The following applies: 3 Hz paced; data not shown. The procedure: Left atria were isolated from male Sprague-Dawley rats (325 to 400 g) under IP pentobarbital anesthesia (0.1 g/kg). Isolated left atria were superfused at 30° C. in Krebs-Henseleit (KH) buffer of the following mM composition: NaCl, 118; NaHCO3, 27; KCl, 4.8; MgSO4, 1.2; KH2PO4, 1.0; CaCl2, 1.8; and glucose, 11.1. Nearly isometric left atrial forces of contraction were measured as described.
Isolated superfused left atria were paced at 3 Hz. 2-APB was added to atrial superfusates from 0.015 or 0.15M DMSO stock solutions to achieve concentrations of 0, 2, 7.5, 15, or 22 μM (n=5 to 10 atria per concentration). Changes in atrial mechanical force were recorded during a subsequent 15 min superfusion.
Two groups of 5 to 6, 3 Hz paced atria were superfused in KH and exposed to 0 or 15 μM 2-APB for 10 min. The pacing stimulus was interrupted for 5 min and the number of spontaneous mechanical events (SMEs), defined as increases in mechanical force occurring in the absence of pacing, were measured as was the postrest potentiation response (PRP).
To determine whether diastolic interval affected the interaction between 2-APB and left atria, atrial pacing was decreased to 0.1 Hz, and 0, 7.5, or 22 μM 2-APB was added to the superfusate (n=6-8 per group). Superfusions continued for 15 min, and changes in atrial mechanical function were observed.
To establish whether SMA was reversible, atria (n=7) were paced at 0.1 Hz, exposed to 15 μM 2-APB for 10 min, and washed with KH. The effect of removing 2-APB on atrial mechanical function was recorded.
To test whether an anion transport inhibitor affected SMA, atria (n=7) were paced at 0.1 Hz in KH and exposed to 15 μM 2-APB. Following the appearance of SMA, they were titrated with 100 to 400 μM DIDS for 3 to 5 min at each concentration. Whether SMA occurred at the end of each titration period was recorded.
Left atria (n=10 per group) were paced at 0.1 Hz and treated with (i) 20 μM 2-APB for 10 min, (ii) with 30 nM isoproterenol for 5 min followed by 20 μM 2-APB for 10 min, and (iii) with 3 μM forskolin for 5 min followed by 20 μM 2-APB for 10 min.
The appendages then were titrated with increasing concentrations of 2-APB, and SMA was measured and recorded.
To determine the anti-arrhythmic activity of gossypol, isolated rat left atrial appendage and right ventricular muscle strips were used as model systems, as described above. Heart muscle was exposed to 20 μM 2-APB for 10 min to induce SMA, and rates of SMA were recorded as a percentage of initial SMA. The muscles then were titrated with up to 5 increasing concentrations of gossypol. Rates of SMA were recorded ˜10 min after the addition of concentration of the polyphenol.
To determine whether EGCG can prevent arrhythmia, rat left atrial appendages (n=9) were exposed to 20 μM 2-APB and rates of SMA were recorded. Groups of muscles (n=6 per) were pre-treated with 30 μM EGCG for 10 min following which they were exposed to 2-APB. Rates of SMA were recorded 10 min later.
To determine whether EGCG is effective to reverse arrhythmia, isolated rat left atrial appendage and right ventricular muscle strips were used as model systems, as described above. Rat left atrial appendages were exposed to 20 μM 2-APB for 10 min to induce SMA, and rates of SMA were recorded as a percentage of initial SMA. The left atrial appendages then were titrated with up to 5 increasing concentrations of the following polyphenols: EGCG, gossypol, resveratrol, and quercetin. Rates of SMA were recorded ˜10 min after the addition of concentration of the polyphenol.
To determine whether EGC can prevent arrhythmia, left atrial appendages (n=9) were exposed to 20 μM 2-APB and rates of SMA were recorded. Groups of appendages (n=6 per) were pre-treated with 30 μM EGC for 10 min following which they were exposed to 2-APB.

The subject of assay [2] is right ventricular muscle strips and right or left ventricular papillary muscles. The assay can be described thus: Ventricular muscle model of SMA and STA. More on the design: species or system rat. The conditions noted are these: paced at 0.5 Hz, added to the superfusate in appropriate amounts. The source says: To further establish this model as a general test for arrhythmic and anti-arrhythmic agents, right ventricular muscle strips and right or left ventricular papillary muscles were isolated from anesthetized rats as cardiac muscle exemplars using methods known to persons skilled in the art. Additional exemplars could include ventricular or atrial conduction system cells and the SAN itself. These muscles were then superfused as described above and paced at 0.5 Hz.

Regarding `c1ccc(B(OB(c2ccccc2)c2ccccc2)c2ccccc2)cc1` [diphenyl boronic anhydride], the “SMEs per min compared with 2-APB” value in assay [1] is recorded as “gave similar results”. In addition, the “ventricular SMA” value in assay [2] was “ventricular SMA was observed”.
